Data on 31 compounds can be found in publication PMC6044914 (ACS Omega, 2017).

≈ marks a conversion by molar mass, not a printed value. Read-outs that look alike come from different tables or passages of the source. Where only a bound is given, the exact number is not on record here.

The test system of data set [1] is Vero cells.
Data set [2] has as its system M. tuberculosis H37Rv (London Pride). Kind of data set: microbe, parasite or virus in culture. In kind it is cell-based, Mycobacterium tuberculosis. The settings on record: for activity against M. tuberculosis (in words): SAR discussion.
Where [3] appears, read: Mycobacterium tuberculosis, H37RV, 120 h.
Where [4] appears, read: Mycobacterium tuberculosis, H37RV.

Take “3-Isobutoxy-N-(5-nitrothiazol-2-yl)picolinamide [compound 22]”: the “TC50” value in data set [1] is 8.9 µM. Also, the “MIC” value in data set [2] (Table 1, […], average ± SD of two independent experiments) amounted to 16 ± 6.4 µM.
As for `Nc1ccccc1C(=O)Nc1ncc([N+](=O)[O-])s1` [compound 5, 2-Amino-N-(5-nitrothiazol-2-yl)benzamide], the “TC50” value in data set [1] (African green monkey) came to 31 µM. In addition, the MIC in data set [2] (setting [3]) is over 20 µM. The “activity against M. tuberculosis (in words)” value (from here on “activity … (in words)”) in data set [2] is “no activity”.
As for `CNc1ccccc1C(=O)Nc1ncc([N+](=O)[O-])s1` [compound 6, 2-(Methylamino)-N-(5-nitrothiazol-2-yl)benzamide], the “TC50” value in data set [1] (African green monkey) came out at 15 µM. In addition, the MIC in data set [2] (setting [3]) is over 20 µM. The “activity … (in words)” value in data set [2] is on record as “no activity”.
As to `CC(=O)Nc1ccccc1C(=O)Nc1ncc([N+](=O)[O-])s1` [compound 7, 2-Acetamido-N-(5-nitrothiazol-2-yl)benzamide], the MIC in data set [2] (setting [3]) was over 20 µM. The “activity … (in words)” value in data set [2] is given as “no activity”.
In the case of `CCC(C)(C)C(=O)Nc1ccccc1C(=O)Nc1ncc([N+](=O)[O-])s1` [compound 9, 2-(2,2-Dimethylbutanamido)-N-(5-nitrothiazol-2-yl)benzamide], in data set [1] (African green monkey), the “TC50” value came out at 4.1 µM. In data set [2] (setting [3]), this compound had an MIC of 17 ± 4.9 µM (≈ 6.16 µg/mL). In data set [2], the “activity … (in words)” value is “showed activity”.
For `CC(C)(C)OC(=O)Nc1ccccc1C(=O)Nc1ncc([N+](=O)[O-])s1` [compound 10, tert-Butyl (2-((5-nitrothiazol-2-yl)carbamoyl)phenyl)carbamate], in that order: 6.6 µM, 17 ± 4.2 µM (≈ 6.19 µg/mL) and “showed activity”.
`O=C(Nc1ncc([N+](=O)[O-])s1)c1cc(F)ccc1O` [compound 11, 5-Fluoro-2-hydroxy-N-(5-nitrothiazol-2-yl)benzamide] gave an MIC in data set [2] (setting [3]) of over 20 µM. Besides, in data set [2], the “activity … (in words)” value is “no activity”.
As for `CCC(C)(C)C(=O)Oc1cc(N2CCOCC2)ccc1C(=O)Nc1ncc([N+](=O)[O-])s1` [compound 14, 5-Morpholino-2-((5-nitrothiazol-2-yl)carbamoyl)phenyl 2,2-dimethylbutanoate], the “TC50” value in data set [1] (African green monkey) is 12 µM. Besides, the MIC in data set [2] (setting [3]) is over 20 µM. The “activity … (in words)” value in data set [2] is recorded as “no activity”.
For `O=C(Nc1ncc([N+](=O)[O-])s1)c1cc(O)ccc1O` [compound 15, 2,5-Dihydroxy-N-(5-nitrothiazol-2-yl)benzamide], in that order: 13 µM, over 20 µM and “no activity”.
For `O=C(O)c1ccccc1C(=O)Nc1ncc([N+](=O)[O-])s1` [compound 16, 2-((5-Nitrothiazol-2-yl)carbamoyl)benzoic Acid], in that order: over 50 µM, over 20 µM and “no activity”.
On to `COc1ccccc1C(=O)Nc1ncc([N+](=O)[O-])s1` [compound 17, 2-Methoxy-N-(5-nitrothiazol-2-yl)benzamide], for which the MIC in data set [2] (setting [3]) was over 20 µM. Further, the “activity … (in words)” value in data set [2] is recorded as “no activity”.
In the case of `CCC(C)(C)C(=O)Nc1cccnc1C(=O)Nc1ncc([N+](=O)[O-])s1` [compound 18, 3-(2,2-Dimethylbutanamido)-N-(5-nitrothiazol-2-yl)picolinamide], the “TC50” value in data set [1] (African green monkey) amounted to 0.9 µM. For the same compound, in data set [2], the “improvement in activity relative to 1” value was 10 fold and the “activity … (in words)” value was “showed activity”. Also, the MIC in data set [2] (setting [3]) came out at 1.4 ± 0.6 µM (≈ 0.509 µg/mL).
In data set [2] (setting [4]), `CC(=O)Nc1ncc([N+](=O)[O-])s1` [compound 26, N-(5-Nitrothiazol-2-yl)acetamide] gave an MIC of over 20 µM. Also, in data set [2], the “activity … (in words)” value is listed as “loss of activity”.
As for `O=C(Nc1ncc([N+](=O)[O-])s1)C1CC1` [compound 27, N-(5-nitrothiazol-2-yl)cyclopropanecarboxamide], the MIC in data set [2] (setting [4]) was over 20 µM. Besides, in data set [2], the “activity … (in words)” value is reported as “loss of activity”.
In the case of `O=C(Nc1ncc([N+](=O)[O-])s1)C1CCCCC1O` (stereo not shown) [compound 29, 2-Hydroxy-N-(5-nitrothiazol-2-yl)cyclohexane-1-carboxamide], in data set [2] (setting [4]), the MIC is over 20 µM.
On to `O=C(Nc1ncc([N+](=O)[O-])s1)c1ccncn1` [compound 30, N-(5-Nitrothiazol-2-yl)pyrimidine-4-carboxamide], for which the MIC in data set [2] (setting [4]) was over 20 µM. Further, in data set [2], the “activity … (in words)” value was “loss of activity”.
For the compound `O=C(Nc1ncc([N+](=O)[O-])s1)N1CCCCC1` [compound 31, N-(5-Nitrothiazol-2-yl)piperidine-1-carboxamide], the MIC in data set [2] (setting [4]) is over 20 µM.
As to `O=C(Nc1ncc([N+](=O)[O-])s1)c1cnccn1` [compound 32, N-(5-Nitrothiazol-2-yl)pyrazine-2-carboxamide], the MIC in data set [2] (setting [4]) was over 20 µM.
For the compound `O=C(Nc1ncc([N+](=O)[O-])s1)c1nccs1` [compound 33, N-(5-Nitrothiazol-2-yl)thiazole-2-carboxamide], the MIC in data set [2] (setting [4]) was over 20 µM.
`O=C(Nc1ncc([N+](=O)[O-])s1)c1cccnc1` [compound 34, N-(5-Nitrothiazol-2-yl)nicotinamide] came in with an MIC in data set [2] (setting [4]) of over 20 µM.
`O=C(Nc1ncc([N+](=O)[O-])s1)c1ccncc1` [compound 35, N-(5-Nitrothiazol-2-yl)isonicotinamide] had an MIC in data set [2] (setting [4]) of over 20 µM.
As to `O=C(Nc1ncc([N+](=O)[O-])s1)NC1CCCCC1` [compound 38, 1-Cyclohexyl-3-(5-nitrothiazol-2-yl)urea], the MIC in data set [2] (setting [4]) was over 20 µM.
Same read-out and setting: the same measure for `O=C(Nc1ccccn1)Nc1ncc([N+](=O)[O-])s1` [compound 39, 1-(5-Nitrothiazol-2-yl)-3-(pyridin-2-yl)urea]: over 20 µM; for `Cn1ccnc1C(=O)Nc1ncc([N+](=O)[O-])s1` [compound 40, 1-Methyl-N-(5-nitrothiazol-2-yl)-1H-imidazole-2-carboxamide]: over 20 µM; for `O=C(Nc1ncc([N+](=O)[O-])s1)c1ncco1` [compound 41, N-(5-Nitrothiazol-2-yl)oxazole-2-carboxamide]: over 20 µM.
Regarding `O=C(Nc1ncc([N+](=O)[O-])s1)c1ccon1` [compound 42, N-(5-Nitrothiazol-2-yl)isoxazole-3-carboxamide], in data set [2] (setting [4]), the MIC is over 20 µM.
On the same count and under the same terms, the value for `Cc1cnc(C(=O)Nc2ncc([N+](=O)[O-])s2)s1` [compound 43, 5-Methyl-N-(5-nitrothiazol-2-yl)thiazole-2-carboxamide] was over 20 µM; that for `O=C(Nc1ncc([N+](=O)[O-])s1)c1nc2ccccc2s1` [compound 44, N-(5-Nitrothiazol-2-yl)benzo[d]thiazole-2-carboxamide] was over 20 µM.
Consider `O=[N+]([O-])c1cnc(NS(=O)(=O)c2ccccc2O)s1` [compound 54, 2-Hydroxy-N-(5-nitrothiazol-2-yl)benzenesulfonamide], for which the “activity … (in words)” value in data set [2] was “inactive”.
Same read-out and setting: the same measure for `O=[N+]([O-])c1cnc(NCc2ccccc2O)s1` [compound 55, 2-(((5-Nitrothiazol-2-yl)amino)methyl)phenol]: “inactive”; for `O=[N+]([O-])c1cnc(NCc2ccccn2)s1` [compound 56, 5-Nitro-N-(pyridin-2-ylmethyl)thiazol-2-amine]: “inactive”.
